This is an account of results in patent publication US20250163104A1, “MACROCYCLIC IMMUNOMODULATORS” (priority 2021, published 2025).

This assay has as its target T1, human PD-1 / PD-L1-Ig binding on Jurkat cell line over-expressing human PD-1 (Jurkat-PD-1) (Homo sapiens, UniProt Q15116).
T1 construct: expressed in transfected cells; host or cells: Jurkat
Briefly: Jurkat-PD-1 Cell Binding High-Content Screening Assay (CBA). In kind it is cell-based. Conditions: Jurkat-PD-1 cells, PE-labeled PD-L1-Ig 20 nM final; read-out: Jurkat HPD1_PDL1 IC50. The procedure, abridged:
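Binding of fluorescent PD-L1-Ig (phycoerythrin linked via the Ig tag, 20 nM final) to PD-1-overexpressing Jurkat cells was imaged after a 2 h, 37° C compound pretreatment and 1 hour ligand incubation.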

Molecules are shown by their SMILES. Where a SMILES comes first, the peptide text is derived from it. Bridges are numbered along the chain shown (N, C = ends). [ ]: non-standard residue; d: D form. The star is where a group is joined. ξ: configuration not given here. Phe(4-CONH2) = NC(=O)c1ccc(C[C@H](N)C(=O)O)cc1; Bip = N[C@@H](Cc1ccc(-c2ccccc2)cc1)C(=O)O; Phe(3-Me) = Cc1cccc(C[C@H](N)C(=O)O)c1; Val(3-OH) = CC(C)(O)[C@H](N)C(=O)O; 4Pal = N[C@@H](Cc1ccncc1)C(=O)O; 2Thi = N[C@@H](Cc1cccs1)C(=O)O; Cha = N[C@@H](CC1CCCCC1)C(=O)O; Cit = NC(=O)NCCC[C@H](N)C(=O)O; Thr(3ξ) = CC(O)[C@H](N)C(=O)O; Carboxymethyl = O=C(O)C*; Nle = CCCC[C@H](N)C(=O)O; Orn = NCCC[C@H](N)C(=O)O; Pra = C#CC[C@H](N)C(=O)O; Dab = NCC[C@H](N)C(=O)O; Dap = NC[C@H](N)C(=O)O; ξPra = C#CCC(N)C(=O)O; Propargyl = C#CC*

T1 sequence (Q15116 25-288): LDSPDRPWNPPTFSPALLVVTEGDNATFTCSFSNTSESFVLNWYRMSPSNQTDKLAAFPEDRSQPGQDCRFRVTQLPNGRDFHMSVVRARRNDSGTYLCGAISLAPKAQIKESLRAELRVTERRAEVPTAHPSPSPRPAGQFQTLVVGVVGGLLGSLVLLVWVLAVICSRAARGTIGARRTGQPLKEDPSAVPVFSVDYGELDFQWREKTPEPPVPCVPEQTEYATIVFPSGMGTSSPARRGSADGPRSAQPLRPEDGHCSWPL

On to `CC(C)C[C@@H]1NC(=O)[C@H](CCCCN)NC(=O)[C@@H](CC(C)C)NC(=O)[C@H](CCN)NC(=O)[C@H](Cc2cnc[nH]2)NC(=O)[C@H](Cc2ccc(-c3ccccc3)cc2)NC(=O)[C@H](C(C)C)NC(=O)[C@H](Cc2c[nH]c3ccccc23)NC(=O)[C@H](CC(=O)O)NC(=O)[C@H](Cc2ccc(O)cc2)NC(=O)[C@H](CC(N)=O)NC(=O)CSC[C@@H](C(=O)N[C@@H](C)C(N)=O)NC(=O)[C@H](CO)NC(=O)[C@H](C(C)C)NC1=O` [Compound 1138] ({CH2CO}-NYDWV[Bip]H[Dab][dL]KLVSCA-NH2; thioether N-14), for which the 50% inhibitory concentration (IC50) was determined as 19.3 nM.

As to `CC(C)C[C@@H]1NC(=O)[C@H](CCN)NC(=O)[C@@H](CC(C)C)NC(=O)[C@H](CCCCN)NC(=O)[C@H](CCCNC(=N)N)NC(=O)[C@H](Cc2ccc(-c3ccccc3)cc2)NC(=O)[C@H](C(C)C)NC(=O)[C@H](Cc2c[nH]c3ccccc23)NC(=O)[C@H](CC(=O)O)NC(=O)[C@H](Cc2ccc(O)cc2)NC(=O)[C@H](CC(N)=O)NC(=O)CSC[C@@H](C(=O)N[C@@H](C)C(N)=O)NC(=O)[C@H]([C@@H](C)O)NC(=O)[C@H](C(C)C)NC1=O` [Compound 1008] ({CH2CO}-NYDWV[Bip]RK[dL][Dab]LVTCA-NH2; thioether N-14), the half-maximal inhibitory concentration (IC50) worked out at 59.9 nM.

Regarding `CC[C@H](C)[C@@H]1NC(=O)[C@H](Cc2ccc(-c3ccccc3)cc2)NC(=O)[C@H](C(C)C)NC(=O)[C@H](Cc2cccc(C)c2)NC(=O)[C@H](CC(=O)O)NC(=O)[C@H](Cc2ccc(OCC(=O)O)cc2)NC(=O)[C@H](CN)NC(=O)CSC[C@@H](C(=O)N[C@@H](C)C(N)=O)NC(=O)[C@H]([C@@H](C)O)NC(=O)[C@H](C(C)C)NC(=O)[C@H](CC2CCCCC2)NC(=O)[C@H](CCN)NC(=O)[C@@H](CC(C)C)NC(=O)[C@H](CCCN)NC1=O` [Compound 1210], the concentration for half-maximal inhibition (IC50) came out at 11.5 nM.

Regarding `C#CCC(NC(=O)[C@H](CCCN)NC(=O)[C@@H]1CSCC(=O)N[C@@H](Cc2ccncc2)C(=O)N[C@@H](Cc2ccc(OCC(=O)O)cc2)C(=O)N[C@@H](CC(=O)O)C(=O)N[C@@H](Cc2c[nH]c3ccccc23)C(=O)N[C@@H](C(C)C)C(=O)N[C@@H](Cc2ccc(-c3ccccc3)cc2)C(=O)N[C@@H]([C@@H](C)CC)C(=O)N[C@@H](CCCN)C(=O)N[C@H](CC(C)C)C(=O)N[C@@H](CCN)C(=O)N[C@@H](CC(C)C)C(=O)N[C@@H](C(C)C)C(=O)N[C@@H]([C@@H](C)O)C(=O)N1)C(N)=O` (stereo partly drawn) [Compound 1766] ({CH2CO}-[4Pal]Y(Carboxymethyl)DWV[Bip]I[Orn][dL][Dab]LVTC[Orn][ξPra]-NH2; thioether N-14), the IC50 stood at 31.4 nM.

Consider `CC(C)C[C@H]1NC(=O)[C@H](CCCN)NC(=O)[C@H](C(C)C)NC(=O)[C@H](Cc2ccc(-c3ccccc3)cc2)NC(=O)[C@H](C(C)C)NC(=O)[C@H](Cc2c[nH]c3ccccc23)NC(=O)[C@H](CC(=O)O)NC(=O)[C@H](Cc2ccc(OCC(=O)O)cc2)NC(=O)[C@H](C(C)O)NC(=O)CSC[C@@H](C(=O)N[C@@H](C)C(N)=O)NC(=O)[C@H](C(C)O)NC(=O)[C@H](C(C)C)NC(=O)C(CC2CCCCC2)NC(=O)[C@H](CCN)NC1=O` (some centres unmarked) [Compound 2511], for which the IC50 worked out at 5.1 nM.

As for `CC(C)C[C@H]1NC(=O)[C@H](CCCN)NC(=O)[C@H](CCCNC(N)=O)NC(=O)[C@H](Cc2ccc(-c3ccccc3)cc2)NC(=O)[C@H](C(C)C)NC(=O)[C@H](Cc2c[nH]c3ccccc23)NC(=O)[C@H](CC(=O)O)NC(=O)[C@H](Cc2c[nH]c3ccccc23)NC(=O)[C@H](CN)NC(=O)CSC[C@@H](C(=O)N[C@@H](C)C(N)=O)NC(=O)[C@H]([C@@H](C)O)NC(=O)[C@H](C(C)C)NC(=O)[C@H](CC2CCCCC2)NC(=O)[C@H](CCN)NC1=O` [Compound 2122] ({CH2CO}-[Dap]WDWV[Bip][Cit][Orn][dL][Dab][Cha]VTCA-NH2; thioether N-14), the concentration for half-maximal inhibition (IC50) was 31.3 nM.

As to `Cc1cccc(C[C@@H]2NC(=O)[C@H](CC(=O)O)NC(=O)[C@H](Cc3ccc(OCC(=O)O)cc3)NC(=O)[C@H](Cc3cccs3)NC(=O)CSC[C@@H](C(=O)N[C@@H](CCN)C(N)=O)NC(=O)[C@H]([C@@H](C)O)NC(=O)[C@H](C(C)(C)O)NC(=O)[C@H](CC3CCCCC3)NC(=O)[C@H](CCN)NC(=O)[C@@H](CC(C)C)NC(=O)[C@H](CCCN)NC(=O)[C@H](Cc3ccc(OCC(=O)O)cc3)NC(=O)[C@H](Cc3ccc(-c4ccccc4)cc3)NC(=O)[C@H](Cc3ccc(OCC(=O)O)cc3)NC2=O)c1` [Compound 2067] ({CH2CO}-[2Thi]Y(Carboxymethyl)D[Phe(3-Me)]Y(Carboxymethyl)[Bip]Y(Carboxymethyl)[Orn][dL][Dab][Cha][Val(3-OH)]TC[Dab]-NH2; thioether N-14), the IC50 came out at 6.3 nM.

As for `Cc1cccc(C[C@@H]2NC(=O)[C@H](CC(=O)O)NC(=O)[C@H](Cc3ccc(OCC(=O)O)cc3)NC(=O)[C@H](CN)NC(=O)CSC[C@@H](C(=O)N[C@@H](C)C(N)=O)NC(=O)[C@H]([C@@H](C)O)NC(=O)[C@H](C(C)C)NC(=O)[C@H](CC3CCCCC3)NC(=O)[C@H](CCN)NC(=O)[C@@H](CC(C)C)NC(=O)[C@H](CCCN)NC(=O)[C@H](C(C)C)NC(=O)[C@H](Cc3ccc(-c4ccccc4)cc3)NC(=O)[C@H](CC(C)C)NC2=O)c1` [Compound 1303] ({CH2CO}-[Dap]Y(Carboxymethyl)D[Phe(3-Me)]L[Bip]V[Orn][dL][Dab][Cha]VTCA-NH2; thioether N-14), the IC50 was determined as 4.8 nM.

For the compound `Cc1cccc(C[C@@H]2NC(=O)[C@H](CC(=O)O)NC(=O)[C@H](Cc3ccc(OCC(=O)O)cc3)NC(=O)[C@H](Cc3cnc[nH]3)NC(=O)CSC[C@@H](C(=O)N[C@H](C)C(N)=O)NC(=O)[C@H](C(C)O)NC(=O)[C@H](C(C)(C)O)NC(=O)[C@H](CC3CCCCC3)NC(=O)[C@H](CCN)NC(=O)[C@@H](CC(C)C)NC(=O)[C@H](CCCN)NC(=O)[C@H](Cc3ccc(OCC(=O)O)cc3)NC(=O)[C@H](Cc3ccc(-c4ccccc4)cc3)NC(=O)[C@H](Cc3ccc(OCC(=O)O)cc3)NC2=O)c1` (stereo partly drawn) [Compound 2650] ({CH2CO}-HY(Carboxymethyl)D[Phe(3-Me)]Y(Carboxymethyl)[Bip]Y(Carboxymethyl)[Orn][dL][Dab][Cha][Val(3-OH)][Thr(3ξ)]C[dA]-NH2; thioether N-14), the concentration for half-maximal inhibition (IC50) was found to be 38.5 nM.

For the compound `Cc1cccc(C[C@@H]2NC(=O)[C@H](CC(=O)O)NC(=O)[C@H](Cc3ccc(C(N)=O)cc3)NC(=O)[C@H](Cc3ccncc3)NC(=O)CSC[C@@H](C(=O)N[C@@H](CCN)C(N)=O)NC(=O)[C@H](CO)NC(=O)[C@H](C(C)(C)O)NC(=O)[C@H](CC3CCCCC3)NC(=O)[C@H](CCN)NC(=O)[C@@H](CC(C)C)NC(=O)[C@H](CCCN)NC(=O)[C@H](Cc3ccc(OCC(=O)O)cc3)NC(=O)[C@H](Cc3ccc(-c4ccccc4)cc3)NC(=O)[C@H](Cc3ccc(OCC(=O)O)cc3)NC2=O)c1` [Compound 2636] ({CH2CO}-[4Pal][Phe(4-CONH2)]D[Phe(3-Me)]Y(Carboxymethyl)[Bip]Y(Carboxymethyl)[Orn][dL][Dab][Cha][Val(3-OH)]SC[Dab]-NH2; thioether N-14), the IC50 was determined as 4.9 nM.

For `C#CC[C@H](NC(=O)[C@H](CCN)NC(=O)[C@@H]1CSCC(=O)N[C@@H](CCN)C(=O)N[C@@H](Cc2ccc(OCC(=O)O)cc2)C(=O)N[C@@H](CC(=O)O)C(=O)N[C@@H](Cc2cccc(C)c2)C(=O)N[C@@H](Cc2ccc(OCC(=O)O)cc2)C(=O)N[C@@H](Cc2ccc(-c3ccccc3)cc2)C(=O)N[C@@H](Cc2ccc(OCC(=O)O)cc2)C(=O)N[C@@H](CCCN)C(=O)N[C@H](CC(C)C)C(=O)N[C@@H](CCN)C(=O)N[C@@H](CC2CCCCC2)C(=O)N[C@@H](C(C)(C)O)C(=O)N[C@@H](CO)C(=O)N1)C(N)=O` [Compound 1851] ({CH2CO}-[Dab]Y(Carboxymethyl)D[Phe(3-Me)]Y(Carboxymethyl)[Bip]Y(Carboxymethyl)[Orn][dL][Dab][Cha][Val(3-OH)]SC[Dab][Pra]-NH2; thioether N-14), the half-maximal inhibitory concentration (IC50) came out at 5.2 nM.

In the case of `C#CCOc1ccc(C[C@@H]2NC(=O)[C@H](Cc3ccc(-c4ccccc4)cc3)NC(=O)[C@H](Cc3ccc(OCC(=O)O)cc3)NC(=O)[C@H](Cc3cccc(C)c3)NC(=O)[C@H](CC(=O)O)NC(=O)[C@H](Cc3ccc(OCC(=O)O)cc3)NC(=O)[C@H](CCCC)NC(=O)CSC[C@@H](C(=O)N[C@@H](CCN)C(N)=O)NC(=O)[C@H](CCC(=O)O)NC(=O)[C@H](C(C)C)NC(=O)[C@H](CC3CCCCC3)NC(=O)[C@H](CCN)NC(=O)[C@@H](CC(C)C)NC(=O)[C@H](CCCN)NC2=O)cc1` [Compound 1838] ({CH2CO}-[Nle]Y(Carboxymethyl)D[Phe(3-Me)]Y(Carboxymethyl)[Bip]Y(Propargyl)[Orn][dL][Dab][Cha]VEC[Dab]-NH2; thioether N-14), the IC50 came to 7.6 nM.

`CC(C)C[C@H]1NC(=O)[C@H](CCCN)NC(=O)[C@H](CCC(=O)O)NC(=O)[C@H](Cc2ccc(-c3ccccc3)cc2)NC(=O)[C@H](C(C)C)NC(=O)[C@H](Cc2cc(F)c(F)c(F)c2)NC(=O)[C@H](CC(=O)O)NC(=O)[C@H](Cc2ccc(OCC(=O)O)cc2)NC(=O)[C@H](CN)NC(=O)CSC[C@@H](C(=O)N[C@@H](C)C(N)=O)NC(=O)[C@H]([C@@H](C)O)NC(=O)[C@H](C(C)C)NC(=O)[C@H](CC2CCCCC2)NC(=O)[C@H](CCN)NC1=O` [Compound 2149]: the IC50 was 41.3 nM.

Regarding `Cc1cccc(C[C@@H]2NC(=O)[C@H](CC(=O)O)NC(=O)[C@H](Cc3ccc(C(=O)O)cc3)NC(=O)[C@H](Cc3ccc(OCC(=O)O)cc3)NC(=O)CSC[C@@H](C(=O)N[C@@H](C)C(N)=O)NC(=O)[C@H]([C@@H](C)O)NC(=O)[C@H](C(C)C)NC(=O)[C@H](CC3CCCCC3)NC(=O)[C@H](CCN)NC(=O)[C@@H](CC(C)C)NC(=O)[C@H](CCCN)NC(=O)[C@H](CCC(=O)O)NC(=O)[C@H](Cc3ccc(-c4ccccc4)cc3)NC(=O)[C@H](C(C)C)NC2=O)c1` [Compound 1426], the half-maximal inhibitory concentration (IC50) is 23.3 nM.

As a reminder, the IC50 is the concentration at which inhibition is half-maximal.
